# Active and inactive are the calls of the source.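 How the source made its calls: active means GFP ratio to DMSO above 1.5 or below 0.66; inactive means the rest.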
# What was measured:
# Assay in all cases: TOR pathway GFP reporter clone modulation in yeast – S. cerevisiae, GFP-tagged clone panel, flow cytometry (AID 504473);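 further: median GFP fluorescence of the cells measured by high-throughput flow cytometry; test concentration not given here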
# YOR182C = conditions: S. cerevisiae GFP-tagged strains, 3 h
# YIL051C = conditions: S. cerevisiae GFP-tagged strains, 3 h
# YGR121C = conditions: S. cerevisiae GFP-tagged strains, 3 h
# [1] = target: General amino acid permease AGP1 (Saccharomyces cerevisiae S288c) (UniProt P25376); conditions: S. cerevisiae GFP-tagged strains, 3 h, YCL025C
# General amino acid permease AGP1 (Saccharomyces cerevisiae S288c), sequence (P25376 whole entry, looked up): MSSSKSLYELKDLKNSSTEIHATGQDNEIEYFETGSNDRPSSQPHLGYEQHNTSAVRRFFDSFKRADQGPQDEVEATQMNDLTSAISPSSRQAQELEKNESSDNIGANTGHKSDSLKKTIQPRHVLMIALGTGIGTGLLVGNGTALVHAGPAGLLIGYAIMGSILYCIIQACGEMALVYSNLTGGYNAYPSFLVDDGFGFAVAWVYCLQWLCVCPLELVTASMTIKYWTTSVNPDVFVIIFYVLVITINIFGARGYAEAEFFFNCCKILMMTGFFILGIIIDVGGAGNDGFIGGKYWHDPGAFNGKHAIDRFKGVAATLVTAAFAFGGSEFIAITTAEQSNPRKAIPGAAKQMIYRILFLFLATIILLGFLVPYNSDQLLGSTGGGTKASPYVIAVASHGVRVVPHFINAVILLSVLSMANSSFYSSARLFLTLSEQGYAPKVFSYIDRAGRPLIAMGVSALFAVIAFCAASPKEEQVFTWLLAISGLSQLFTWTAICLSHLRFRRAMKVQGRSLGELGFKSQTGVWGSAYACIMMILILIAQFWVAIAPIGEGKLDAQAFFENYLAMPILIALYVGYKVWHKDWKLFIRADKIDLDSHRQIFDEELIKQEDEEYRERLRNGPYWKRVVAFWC
# YNL214W = conditions: S. cerevisiae GFP-tagged strains, 3 h
# YML063W = conditions: S. cerevisiae GFP-tagged strains, 3 h
# YOR038C = conditions: S. cerevisiae GFP-tagged strains, 3 h
# YDR070C = conditions: S. cerevisiae GFP-tagged strains, 3 h
# YMR307W = conditions: S. cerevisiae GFP-tagged strains, 3 h
# YGR019W = conditions: S. cerevisiae GFP-tagged strains, 3 h
# YHR144C = conditions: S. cerevisiae GFP-tagged strains, 3 h
# YLL026W = conditions: S. cerevisiae GFP-tagged strains, 3 h
# YDL205C = conditions: S. cerevisiae GFP-tagged strains, 3 h
# YIL052C = conditions: S. cerevisiae GFP-tagged strains, 3 h
# YKR094C = conditions: S. cerevisiae GFP-tagged strains, 3 h
# YML004C = conditions: S. cerevisiae GFP-tagged strains, 3 h
# YIL066C = conditions: S. cerevisiae GFP-tagged strains, 3 h
# YOL052C-A = conditions: S. cerevisiae GFP-tagged strains, 3 h
# YLL039C = conditions: S. cerevisiae GFP-tagged strains, 3 h
# YPL220W = conditions: S. cerevisiae GFP-tagged strains, 3 h
# YCL064C = conditions: S. cerevisiae GFP-tagged strains, 3 h
# YNL015W = conditions: S. cerevisiae GFP-tagged strains, 3 h
# YGR088W = conditions: S. cerevisiae GFP-tagged strains, 3 h
# YNR001C = conditions: S. cerevisiae GFP-tagged strains, 3 h
# YPR145W = conditions: S. cerevisiae GFP-tagged strains, 3 h
# YOR375C = conditions: S. cerevisiae GFP-tagged strains, 3 h
# YHL021C = conditions: S. cerevisiae GFP-tagged strains, 3 h
# YIL043C = conditions: S. cerevisiae GFP-tagged strains, 3 h
# YIL069C = conditions: S. cerevisiae GFP-tagged strains, 3 h
# YMR105C = conditions: S. cerevisiae GFP-tagged strains, 3 h
# YDR453C = conditions: S. cerevisiae GFP-tagged strains, 3 h
# YBR072W = conditions: S. cerevisiae GFP-tagged strains, 3 h
# YPL131W = conditions: S. cerevisiae GFP-tagged strains, 3 h
# YDR399W = conditions: S. cerevisiae GFP-tagged strains, 3 h
# YGL062W = conditions: S. cerevisiae GFP-tagged strains, 3 h
# YHR141C = conditions: S. cerevisiae GFP-tagged strains, 3 h
# YGL135W = conditions: S. cerevisiae GFP-tagged strains, 3 h
# YKL086W = conditions: S. cerevisiae GFP-tagged strains, 3 h
# YML128C = conditions: S. cerevisiae GFP-tagged strains, 3 h
# YNL068C = conditions: S. cerevisiae GFP-tagged strains, 3 h
# YDL204W = conditions: S. cerevisiae GFP-tagged strains, 3 h
# YOR063W = conditions: S. cerevisiae GFP-tagged strains, 3 h
# YAL060W = conditions: S. cerevisiae GFP-tagged strains, 3 h
# YPL111W = conditions: S. cerevisiae GFP-tagged strains, 3 h
# YER156C = conditions: S. cerevisiae GFP-tagged strains, 3 h
# YHR203C = conditions: S. cerevisiae GFP-tagged strains, 3 h
# YKR093W = conditions: S. cerevisiae GFP-tagged strains, 3 h
# YML034W = conditions: S. cerevisiae GFP-tagged strains, 3 h
# YER151C = conditions: S. cerevisiae GFP-tagged strains, 3 h
# YGL147C = conditions: S. cerevisiae GFP-tagged strains, 3 h
# YDR382W = conditions: S. cerevisiae GFP-tagged strains, 3 h
# YMR251W-A = conditions: S. cerevisiae GFP-tagged strains, 3 h
# YLR058C = conditions: S. cerevisiae GFP-tagged strains, 3 h
# YHR087W = conditions: S. cerevisiae GFP-tagged strains, 3 h
# YJL056C = conditions: S. cerevisiae GFP-tagged strains, 3 h
# YCR002C = conditions: S. cerevisiae GFP-tagged strains, 3 h
# YKL103C = conditions: S. cerevisiae GFP-tagged strains, 3 h
# YPL265W = conditions: S. cerevisiae GFP-tagged strains, 3 h
# YLR142W = conditions: S. cerevisiae GFP-tagged strains, 3 h
# YKR039W = conditions: S. cerevisiae GFP-tagged strains, 3 h
# YLR109W = conditions: S. cerevisiae GFP-tagged strains, 3 h
# YGL036W = conditions: S. cerevisiae GFP-tagged strains, 3 h
# YNL112W = conditions: S. cerevisiae GFP-tagged strains, 3 h
# YOR371C = conditions: S. cerevisiae GFP-tagged strains, 3 h
# YOR173W = conditions: S. cerevisiae GFP-tagged strains, 3 h
# YPR184W = conditions: S. cerevisiae GFP-tagged strains, 3 h
# YJR148W = conditions: S. cerevisiae GFP-tagged strains, 3 h
# YHR018C = conditions: S. cerevisiae GFP-tagged strains, 3 h
# YLR367W = conditions: S. cerevisiae GFP-tagged strains, 3 h
# YMR120C = conditions: S. cerevisiae GFP-tagged strains, 3 h
# YKL119C = conditions: S. cerevisiae GFP-tagged strains, 3 h
# YDL130W = conditions: S. cerevisiae GFP-tagged strains, 3 h
# YAL061W = conditions: S. cerevisiae GFP-tagged strains, 3 h
# YPL150W = conditions: S. cerevisiae GFP-tagged strains, 3 h
# YGR034W = conditions: S. cerevisiae GFP-tagged strains, 3 h
# YBR208C = conditions: S. cerevisiae GFP-tagged strains, 3 h
# YEL060C = conditions: S. cerevisiae GFP-tagged strains, 3 h
# YFR053C = conditions: S. cerevisiae GFP-tagged strains, 3 h
# YEL007W = conditions: S. cerevisiae GFP-tagged strains, 3 h
# YEL063C = conditions: S. cerevisiae GFP-tagged strains, 3 h
# YEL071W = conditions: S. cerevisiae GFP-tagged strains, 3 h
# YLR287C-A = conditions: S. cerevisiae GFP-tagged strains, 3 h
# YLR185W = conditions: S. cerevisiae GFP-tagged strains, 3 h
# YJL144W = conditions: S. cerevisiae GFP-tagged strains, 3 h
# YFR031C-A = conditions: S. cerevisiae GFP-tagged strains, 3 h
# YPR132W = conditions: S. cerevisiae GFP-tagged strains, 3 h
# YBR139W = conditions: S. cerevisiae GFP-tagged strains, 3 h
# YOR136W = conditions: S. cerevisiae GFP-tagged strains, 3 h
# YNL142W = conditions: S. cerevisiae GFP-tagged strains, 3 h
# YML026C = conditions: S. cerevisiae GFP-tagged strains, 3 h
# YLR237W = conditions: S. cerevisiae GFP-tagged strains, 3 h
# YBR248C = conditions: S. cerevisiae GFP-tagged strains, 3 h
# YBL087C = conditions: S. cerevisiae GFP-tagged strains, 3 h
# YER117W = conditions: S. cerevisiae GFP-tagged strains, 3 h
# YER081W = conditions: S. cerevisiae GFP-tagged strains, 3 h
# YCR005C = conditions: S. cerevisiae GFP-tagged strains, 3 h
smiles,measurement,setting,value
CNc1nc(N)c([N+](=O)[O-])c(Nc2ccccc2)n1,GFP ratio to DMSO,YOR182C,1.02 (inactive)
same,GFP ratio to DMSO,YIL051C,0.923 (inactive)
same,GFP ratio to DMSO,YGR121C,0.942 (inactive)
same,GFP ratio to DMSO,[1],0.776 (inactive)
same,GFP ratio to DMSO,YNL214W,1.01 (inactive)
same,GFP ratio to DMSO,YML063W,1.07 (inactive)
same,GFP ratio to DMSO,YOR038C,0.966 (inactive)
same,GFP ratio to DMSO,YDR070C,0.918 (inactive)
same,GFP ratio to DMSO,YMR307W,1.05 (inactive)
same,GFP ratio to DMSO,YGR019W,0.906 (inactive)
same,GFP ratio to DMSO,YHR144C,0.896 (inactive)
same,GFP ratio to DMSO,YLL026W,1 (inactive)
same,GFP ratio to DMSO,YDL205C,0.983 (inactive)
same,GFP ratio to DMSO,YIL052C,0.931 (inactive)
same,GFP ratio to DMSO,YKR094C,1.11 (inactive)
same,GFP ratio to DMSO,YML004C,0.838 (inactive)
same,GFP ratio to DMSO,YIL066C,0.844 (inactive)
same,GFP ratio to DMSO,YOL052C-A,0.961 (inactive)
same,GFP ratio to DMSO,YLL039C,0.733 (inactive)
same,GFP ratio to DMSO,YPL220W,1.01 (inactive)
same,GFP ratio to DMSO,YCL064C,0.878 (inactive)
same,GFP ratio to DMSO,YNL015W,0.929 (inactive)
same,GFP ratio to DMSO,YGR088W,0.924 (inactive)
same,GFP ratio to DMSO,YNR001C,1.05 (inactive)
same,GFP ratio to DMSO,YPR145W,1.17 (inactive)
same,GFP ratio to DMSO,YOR375C,1.03 (inactive)
same,GFP ratio to DMSO,YHL021C,1.07 (inactive)
same,GFP ratio to DMSO,YIL043C,1.02 (inactive)
same,GFP ratio to DMSO,YIL069C,1.11 (inactive)
same,GFP ratio to DMSO,YMR105C,1.02 (inactive)
same,GFP ratio to DMSO,YDR453C,0.899 (inactive)
same,GFP ratio to DMSO,YBR072W,0.795 (inactive)
same,GFP ratio to DMSO,YPL131W,1.14 (inactive)
same,GFP ratio to DMSO,YDR399W,0.947 (inactive)
same,GFP ratio to DMSO,YGL062W,1.34 (inactive)
same,GFP ratio to DMSO,YHR141C,1.04 (inactive)
same,GFP ratio to DMSO,YGL135W,1.08 (inactive)
same,GFP ratio to DMSO,YKL086W,0.881 (inactive)
same,GFP ratio to DMSO,YML128C,0.827 (inactive)
same,GFP ratio to DMSO,YNL068C,0.902 (inactive)
same,GFP ratio to DMSO,YDL204W,0.948 (inactive)
same,GFP ratio to DMSO,YOR063W,1.07 (inactive)
same,GFP ratio to DMSO,YAL060W,0.91 (inactive)
same,GFP ratio to DMSO,YPL111W,1.02 (inactive)
same,GFP ratio to DMSO,YER156C,0.978 (inactive)
same,GFP ratio to DMSO,YHR203C,1.04 (inactive)
same,GFP ratio to DMSO,YKR093W,1.17 (inactive)
same,GFP ratio to DMSO,YML034W,0.814 (inactive)
same,GFP ratio to DMSO,YER151C,0.943 (inactive)
same,GFP ratio to DMSO,YGL147C,1.05 (inactive)
same,GFP ratio to DMSO,YDR382W,1.14 (inactive)
same,GFP ratio to DMSO,YMR251W-A,0.892 (inactive)
same,GFP ratio to DMSO,YLR058C,0.838 (inactive)
same,GFP ratio to DMSO,YHR087W,0.827 (inactive)
same,GFP ratio to DMSO,YJL056C,0.808 (inactive)
same,GFP ratio to DMSO,YCR002C,0.929 (inactive)
same,GFP ratio to DMSO,YKL103C,0.988 (inactive)
same,GFP ratio to DMSO,YPL265W,1.38 (inactive)
same,GFP ratio to DMSO,YLR142W,0.866 (inactive)
same,GFP ratio to DMSO,YKR039W,0.804 (inactive)
same,GFP ratio to DMSO,YLR109W,1.17 (inactive)
same,GFP ratio to DMSO,YGL036W,0.822 (inactive)
same,GFP ratio to DMSO,YNL112W,1.12 (inactive)
same,GFP ratio to DMSO,YOR371C,0.844 (inactive)
same,GFP ratio to DMSO,YOR173W,0.941 (inactive)
same,GFP ratio to DMSO,YPR184W,0.886 (inactive)
same,GFP ratio to DMSO,YJR148W,1.26 (inactive)
same,GFP ratio to DMSO,YHR018C,0.874 (inactive)
same,GFP ratio to DMSO,YLR367W,1.06 (inactive)
same,GFP ratio to DMSO,YMR120C,0.519
same,GFP ratio to DMSO,YKL119C,0.959 (inactive)
same,GFP ratio to DMSO,YDL130W,1.09 (inactive)
same,GFP ratio to DMSO,YAL061W,0.796 (inactive)
same,GFP ratio to DMSO,YPL150W,0.843 (inactive)
same,GFP ratio to DMSO,YGR034W,1.07 (inactive)
same,GFP ratio to DMSO,YBR208C,0.853 (inactive)
same,GFP ratio to DMSO,YEL060C,0.694 (inactive)
same,GFP ratio to DMSO,YFR053C,0.83 (inactive)
same,GFP ratio to DMSO,YEL007W,0.874 (inactive)
same,GFP ratio to DMSO,YEL063C,1.03 (inactive)
same,GFP ratio to DMSO,YEL071W,1.66
same,GFP ratio to DMSO,YLR287C-A,1.1 (inactive)
same,GFP ratio to DMSO,YLR185W,1.08 (inactive)
same,GFP ratio to DMSO,YJL144W,0.911 (inactive)
same,GFP ratio to DMSO,YFR031C-A,1.06 (inactive)
same,GFP ratio to DMSO,YPR132W,1.18 (inactive)
same,GFP ratio to DMSO,YBR139W,0.915 (inactive)
same,GFP ratio to DMSO,YOR136W,1.11 (inactive)
same,GFP ratio to DMSO,YNL142W,0.933 (inactive)
same,GFP ratio to DMSO,YML026C,0.957 (inactive)
same,GFP ratio to DMSO,YLR237W,0.848 (inactive)
same,GFP ratio to DMSO,YBR248C,0.927 (inactive)
same,GFP ratio to DMSO,YBL087C,1 (inactive)
same,GFP ratio to DMSO,YER117W,0.909 (inactive)
same,GFP ratio to DMSO,YER081W,1.14 (inactive)
same,GFP ratio to DMSO,YCR005C,1.37 (inactive)
